# Values quoted from earlier work as cited in patent publication US20090239285A1, “TANDEM REAPEAT DNA CONSTRUCTS PRODUCING PROTEINS THAT ATTACK PLANT PATHOGENIC VIRUSES, FUNGI, AND BACTERIA BY DISRUPTING TRANSCRIPTION FACTORS ESSENTIAL FOR REPLICATION THEREOF IN PLANTS” (priority 2008, published 2009).
# Test system: rice blast fungus Magnaporthe grisea
# Settings: PA treated plants; doses in range 0.5 mg/mL; cited from earlier work
smiles,measurement,value
"O=C(O)c1ccccn1 [Picolinic acid, 2-pyridine carboxylic acid]",resistance against M. grisea,enhanced
